Source: patent US20260091030A1, “HIGH-DOSE NALOXONE FORMULATION” (SRI INTERNATIONAL, priority 2022, published 2026)

Legend:
physchem = conditions: thermodynamic from solid
[1] = Initial pH stability of Naloxone hydrochloride in 10 mM buffers pH 3.0-10.6, 7 days (concentration, pH, Noroxymorphone by HPLC); assay type: physicochemical
Experimental: FIG. 3 is a graph that depicts the concentration of Naloxone in various buffers at t=0 and t=7. The t=7 represents samples stored at either 40° C. or 60° C. for up to 7 days. […] The 15 mg/ml was chosen for pH stability studies and a final formulation of Naloxone is planned to be at 10 mg/ml strength. The maximum possible solubility of drug substance at various buffers will be performed in a “pH solubility” study. […] Naloxone precipitated in solution maintained at pH 7.4-10.6. The glycine-sodium hydroxide buffer system fared slightly better, however not as well as the buffers that maintained pH at 3.0-6.5. It is likely that buffer strength higher than 10 mM is required for pH 7.0-11 buffer systems. […] Based on the pKa values, solubility of Naloxone is expected to be higher at lower pH conditions.
FIG. 4 is a graph that depicts the change in pH of Naloxone in various buffers t=0 and t=7. The t=7 represents samples stored at either 40° C. or 60° C. for up to 7 days. FIG. 4 follows the change in pH for the buffered naloxone samples as a function of time and temperature of storage. It appears that higher pH instability and higher temperature degradations are concerns for Naloxone formulations. Optimum buffering of Naloxone appears to occur at pH 3-4.6; at the molarity tested.
FIG. 5 is a graph that depicts pH-stability of Naloxone after 7 days at room temperature by showing Naloxone and Noroxymorphone concentrations in various buffers assayed by HPLC. Temperature and duration of sample storage are at ambient temperature for 7 days.
FIG. 6 is a graph that depicts pH-stability of Naloxone after 7 days at 40° C. and 75% relative humidity by showing Naloxone and Noroxymorphone concentrations in various buffers assayed by HPLC. Temperature and duration of sample storage are at 40° C. and 75% relative humidity for 7 days. FIG. 6 follows up on the conclusions drawn from the experiment conducted that underlies FIG. 5. Raising the temperature incudes greater formation of Noroxymorphone, and this effect is more pronounced in formulations with a higher pH.
FIG. 7 is a graph that depicts pH-stability of Naloxone after 7 days at 60° C. by showing Naloxone and Noroxymorphone concentrations in various buffers assayed by HPLC. Temperature and duration of sample storage are at 60° C. and humidity was not maintained for 7 days. At even higher temperatures, Noroxymorphone was detected in all formulations across all respective pHs.
Buffers used in intramuscular formulations range from 1-100 mM, but lower molar strengths are known to cause less myotoxicity resulting in less “pain” at the site of injection (Napaporn et al., Pharm. Dev. Technol. 5(1): 123-30 (2000). For the purpose of these initial pH stability experiment, a buffer strength of 10 mM was chosen. Buffers tested ranged from pH 3.0-10.6. Intramuscular formulations below pH 3.0 are extremely rare, owing to excessive acidity which can cause a burning sensation. Table 1 lists the various buffer systems used for this study.
Buffers were created and mixed to a concentration of 10 mM with the pH stabilized. […] Buffers tested ranged from pH 3.0-10.6. Intramuscular formulations below pH 3.0 are rare due to discomfort associated with the injection site.

[2] = pH-stability with and without buffering agents under nitrogen gas overlay / excipient compatibility study; assay type: physicochemical
Experimental: FIG. 16 is a graph showing pH fluctuations in samples under nitrogen gas overlay, specifically change in pH of Naloxone solutions in water and buffers at pH 3.0 and 4.6 on Day 0 and Day 7. The Day 7 represents samples stored at either room temperature, 40° C. and 75% relative humidity or 60° C. or 25° C. and 60% relative humidity (in amber vials) for up to 7 days.
Samples prepared for pH-Stability of naloxone with and without buffering agents (citrate and acetate at pH 3.0 and pH 4.6 respectively) under nitrogen gas overlay were left at 40° C.±2° C./75%±5% relative humidity (RH) and at 60° C. for a total of 5 weeks for this excipient compatibility study. A stability storage chamber was used for 40° C.±2° C./75%±5% while a regular oven was used for the 60° C. samples. Briefly, naloxone samples were prepared in 20 ml of water for injection or freshly prepared 10 mM citrate buffer and/or acetate buffer in 25 ml volumetric flask. […] The pH of the naloxone solutions was adjusted to 3.0 and 4.6 with 0.1N HCl solution. Samples were diluted up to the 25 ml mark with water for injection or citrate buffer pH 3.0 or acetate buffer pH 4.6. These naloxone solutions were filtered using 0.22 μm, 13 mm, PVDF (Pall scientific) syringe filters and pH of the filtrate was measured. The filtered solution was aliquoted into 2.0 ml clear, sterile, Type-I glass vials and closed with 13 mm red rubber closures crimped with aluminum blue flip cap seals. All vials were overlaid with nitrogen gas (filtered with 0.22u PTFE, Acro®50 Vent In-Line filter, Pall scientific) before sealing and stored at 40° C.±2° C./75%±5% relative humidity (RH) or 60° C. for 5 weeks. These samples were evaluated for pH, assay and impurities of naloxone at intervals of T=0, 1 week and T=5 weeks. […] These samples were analyzed at T=2 weeks and T=5 weeks for pH, assay and impurities for naloxone. […]
The pH and assay of naloxone for excipient compatibility samples stored at 40° C.±2° C./75%±5% RH and 60° C. on T=0-day, 1 week and T=5 weeks were evaluated.

C=CCN1CC[C@]23c4c5ccc(O)c4O[C@H]2C(=O)CC[C@@]3(O)[C@H]1C5.Cl [Naloxone hydrochloride, (−)-17-Allyl-4, 5 α-epoxy-3,14-dihydroxymorphinan-6-one hydrochloride]
solubility (physchem; pH 5, aqueous buffer): 204 mg/mL | solubility (physchem; pH 10, aqueous buffer): 90.5 mg/mL | dissolution at 15 mg/ml in buffer ([1]; 10 mM buffer systems at pH 7.4 (sodium phosphate monobasic/dibasic) and pH 10.6 (carbonate-bicarbonate)): did not dissolve efficiently | pH of optimum buffering ([1]; 10 mM buffers, up to 7 days at 40° C. or 60° C.): 3-4.6 | Noroxymorphone detected by HPLC ([1]; 7 days at ambient temperature, pH 7.4 sodium phosphate and pH 10 glycine buffer versus pH lower than 6.5): Greater amounts of Noroxymorphone were detected | Noroxymorphone formation by HPLC ([1]; citrate buffer at pH 3, 7 days at 60° C.): significantly less Noroxymorphone formation than all of the other formulations tested | precipitation in solution ([1]; solution maintained at pH 7.4-10.6): precipitated | change in pH ([2]; 10 mM citrate and acetate buffers at pH 3.0 and 4.6, nitrogen overlay, seven days at room temperature, 40° C./75% RH, 60° C., 25° C./60% RH (amber vials)): no change in pH | change in pH ([2]; without buffers at pH 3.0, nitrogen overlay, seven days at room temperature, 40° C./75% RH, 60° C., 25° C./60% RH (amber vials)): no change in pH | change in pH ([2]; without buffers at pH 4.6, nitrogen overlay, seven days): increased
